Measured values as given in US20240090547A1, “SWEETENER COMPOSITIONS COMPRISING MOGROSIDES AND USES THEREOF” (Firmenich Incorporated, priority 2021, published 2024).

Assays:
Assay type in all cases: in vivo, human
[1] = test system: panel of volunteers; assay: Sensory testing for sparkling orange beverage; conditions: sparkling orange beverage, 250 ppm (mogroside V 250 mg [sic]), average normalized score, 10-point scale; for Licorice Aftertaste / Lingering Sweetness / Mouth Coating / Overall Off-Taste: aftertaste; for Delayed Sweetness / Sweetness: in-mouth
Protocol: (§1) A panel of volunteers evaluated siamenoside I for in-mouth attributes (sweetness, delayed sweetness, sourness, bitterness, global flavor intensity, thickness/body, and astringence) and aftertaste (AT) attribtues (lingering sweetness, overall off-taste intensity, licorice off-tast, bitterness off-taste, and mouth coating) on a 10-point scale. Two replicate sessions were conducted, with a 20 minute break between sessions. There was a 90 second delay between samples within a session. Panelists evaluated all samples in a first session and evaluated the samples again a second time in a second session. Control samples of Rebaudioside M (Reb M) were evaluated during all sessions as a control. Mogroside V was also evaluated and sensory data for mogroside V is provided.
(§2) Data analysis was performed using 2-way analysis of variance (ANOVA) with interaction using Tukey's HSD test. The data was normalized for each attribute according to average scores for Reb M.
A panel of volunteers evaluated a sparkling orange beverage containing siamenodie I for in-mouth attributes and aftertaste attributes according to the methods described in Example 1 above.
The average normalized in-mouth attributes for a sample of sparkling orange beverage containing siamenoside I was evaluated and the results are provided below.
The average normalized aftertaste attributes for a sample of sparkling orange beverage containing siamenoside I was evaluated and the results are provided below.

[2] = test system: panel of volunteers; assay: Sensory testing for lemon-lime carbonated soft drink; parameters: key to Sweetness / Delayed Sweetness / Bitterness / Lingering Sweetness / Overall Off-Taste / Licorice Aftertaste / Bitterness Aftertaste: 10-point scale; scores normalized to average Reb M scores; conditions: 600 ppm (mogroside V 600 mg [sic]), average normalized score, 10-point scale; for Bitterness Aftertaste / Licorice Aftertaste / Lingering Sweetness / Overall Off-Taste: aftertaste; for Bitterness / Delayed Sweetness / Global Flavor Intensity / Sweetness: in-mouth
Protocol: as §1, §2
A panel of volunteers evaluated the siamenoside I-containing lemon-lime carbonated soft drink for in-mouth attributes and aftertaste attributes according to the methods described in Example 1 above.
The average normalized in-mouth attributes for a sample of lemon-lime carbonated soft drink having […] was evaluated below.
The average normalized aftertaste attributes for a sample of lemon-lime carbonated soft drink having siamenoside I was evaluated below.

[3] = test system: panel of volunteers; assay: Sensory testing for apple drink (panel, in-mouth and aftertaste attributes); parameters: key to Sweetness / Delayed Sweetness / Bitterness / Lingering Sweetness / Overall Off-Taste / Licorice Aftertaste / Bitterness Aftertaste / Mouth Coating: 10-point scale; normalized per attribute to average Reb M scores; conditions: 10-point scale; for Bitterness Aftertaste / Licorice Aftertaste / Lingering Sweetness / Overall Off-Taste / Mouth Coating: aftertaste; for Bitterness / Delayed Sweetness / Global Flavor Intensity / Sweetness / Thickness/Body: in-mouth, average normalized score
Protocol: as §1, §2
The average normalized in-mouth attributes for each sample of apple drink containing siamenoside I was evaluated below.
The average sweetness for each sample of apple drink containing siamenoside I was evaluated below.

[4] = test system: panel of volunteers; assay: Sensory testing for vanilla milk; conditions: average normalized score, 10-point scale; for Licorice Aftertaste / Lingering Sweetness / Mouth Coating / Overall Off-Taste: aftertaste; for Astringence / Delayed Sweetness / Fattiness / Sourness / Sweetness / Bitterness / Global Flavor Intensity: in-mouth
Protocol: as §1, §2
A panel of volunteers evaluated vanilla milk for in-mouth attributes and aftertaste attributes according to the methods described in Example 1 above.
The average normalized in-mouth attributes for each sample of vanilla milk was evaluated and the results are provided below.
The average normalized aftertaste attributes for each sample of vanilla milk containing siamenoside I was evaluated and the results are provided below.

[5] = test system: panel of flavorists; assay: Additional sensory testing for vanilla milk, flavorist panel; conditions: 400 ppm mogrosides, 0 to 10 scale, letter in parentheses = Duncan's test group; for Sweet Linger: aftertaste, after expectoration; for Bitterness / Mouthfeel/Thickness / Peak Sweetness / Upfront Sweetness: in-mouth
Protocol: (§3) A panel of flavorists at three locations evaluated vanilla milk containing various mogrosides at a concentration of 400 ppm mogrosides for in-mouth attributes (peak sweetness, upfront sweetness, bitterness, and mouthfeel/thickness) and aftertaste attributes (sweet taste linger), on a 0 to 10 scale. The in-mouth attributes were evaluated while holding the sample in the mouth, while the aftertaste attributes were evaluated after expectoration. The data was analyzed using Duncan's new multiple range test and the scores are provided in the data below in parentheses.

[6] = test system: expert panelists; assay: Expert panelists' comparison of mogrosides with stevia; conditions: 'Examples 4 and 5', in words
[7] = test system: panel of flavorists; assay: Additional sensory testing for lemon-flavored (lemon-lime) beverage, flavorist panel; conditions: 600 ppm mogrosides, 0 to 10 scale, letter in parentheses = Duncan's test group; for Sweet Linger: aftertaste, after expectoration; for Bitterness / Mouthfeel/Thickness / Peak Sweetness / Upfront Sweetness: in-mouth
Protocol: as §3, with “lemon-lime beverage” for “vanilla milk containing”, “600” for “400”, “expectoration.” for “expectoration. The data was analyzed using Duncan's new multiple range test and the scores are provided in the data below in parentheses.”

[8] = 250 ppm (mogroside V 250 mg [sic])
[9] = 500 ppm (mogroside V 500 mg [sic])
[10] = 200 ppm (mogroside V 200 mg [sic])
[11] = 400 ppm (mogroside V 400 mg [sic])

C[C@H](CC[C@@H](O[C@@H]1O[C@H](CO[C@@H]2O[C@H](CO)[C@@H](O)[C@H](O)[C@H]2O)[C@@H](O)[C@H](O)[C@H]1O[C@@H]1O[C@H](CO)[C@@H](O)[C@H](O)[C@H]1O)C(C)(C)O)[C@H]1CC[C@@]2(C)[C@@H]3CC=C4[C@@H](CC[C@H](O[C@@H]5O[C@H](CO[C@@H]6O[C@H](CO)[C@@H](O)[C@H](O)[C@H]6O)[C@@H](O)[C@H](O)[C@H]5O)C4(C)C)[C@]3(C)[C@H](O)C[C@]12C [mogroside V]
Licorice Aftertaste [1]: 2.2 | Lingering Sweetness [1]: 3.6 | Mouth Coating [1]: 2.8 | Overall Off-Taste [1]: 2.9 | Delayed Sweetness [1]: 4.2 | Sweetness [1]: 5.1 | Bitterness Aftertaste [2]: 1.6 | Licorice Aftertaste [2]: 2.3 | Lingering Sweetness [2]: 3.6 | Overall Off-Taste [2]: 3.7 | Bitterness [2]: 2.0 | Delayed Sweetness [2]: 3.4 | Global Flavor Intensity [2]: 3.9 | Sweetness [2]: 5.0 | Bitterness Aftertaste [3, 8]: 1.3 | Licorice Aftertaste [3, 8]: 2.3 | Lingering Sweetness [3, 8]: 2.5 | Overall Off-Taste [3, 8]: 3.4 | Bitterness [3, 8]: 1.6 | Delayed Sweetness [3, 8]: 2.5 | Global Flavor Intensity [3, 8]: 3.0 | Sweetness [3, 8]: 3.4 | Thickness/Body [3, 8]: 1.3 | Licorice Aftertaste [3, 9]: 2.0 | Lingering Sweetness [3, 9]: 3.8 | Mouth Coating [3, 9]: 2.1 | Overall Off-Taste [3, 9]: 2.9 | Bitterness [3, 9]: 1.3 | Delayed Sweetness [3, 9]: 3.1 | Global Flavor Intensity [3, 9]: 4.1 | Sweetness [3, 9]: 5.2 | Thickness/Body [3, 9]: 1.6 | Licorice Aftertaste [4, 10]: 0.8 | Lingering Sweetness [4, 10]: 2.5 | Mouth Coating [4, 10]: 2.9 | Overall Off-Taste [4, 10]: 1.6 | Astringence [4, 10]: 0.5 | Delayed Sweetness [4, 10]: 1.9 | Fattiness [4, 10]: 3.2 | Sourness [4, 10]: 1.0 | Sweetness [4, 10]: 5.0 | Licorice Aftertaste [4, 11]: 1.1 | Lingering Sweetness [4, 11]: 3.5 | Mouth Coating [4, 11]: 0.9 | Overall Off-Taste [4, 11]: 2.2 | Astringence [4, 11]: 0.3 | Bitterness [4, 11]: 1.2 | Delayed Sweetness [4, 11]: 2.0 | Fattiness [4, 11]: 3.5 | Global Flavor Intensity [4, 11]: 4.2 | Sourness [4, 11]: 0.9 | Sweetness [4, 11]: 6.3

C[C@H](CC[C@@H](O[C@@H]1O[C@H](CO[C@@H]2O[C@H](CO)[C@@H](O)[C@H](O)[C@H]2O)[C@@H](O)[C@H](O)[C@H]1O[C@@H]1O[C@H](CO)[C@@H](O)[C@H](O)[C@H]1O)C(C)(C)O)[C@H]1CC[C@@]2(C)[C@@H]3CC=C4[C@@H](CC[C@H](O[C@@H]5O[C@H](CO)[C@@H](O[C@@H]6O[C@H](CO)[C@@H](O)[C@H](O)[C@H]6O)[C@H](O)[C@H]5O)C4(C)C)[C@]3(C)[C@H](O)C[C@]12C [Isomogroside V]
Sweet Linger [5]: 4.625 (b) | Bitterness [5]: 0.875 (b) | Mouthfeel/Thickness [5]: 4.875 (ab) | Peak Sweetness [5]: 6.188 (b) | Upfront Sweetness [5]: 5.125 (b) | bitter aftertaste compared with stevia [6]: lower bitter aftertaste | licorice aftertaste compared with stevia [6]: lower licorice aftertaste | mouthfeel compared with stevia [6]: better mouthfeel | Sweet Linger [7]: 4.857 (ab) | Bitterness [7]: 2.286 (a) | Mouthfeel/Thickness [7]: 2.571 (b) | Peak Sweetness [7]: 5.571 (bc) | Upfront Sweetness [7]: 4.000 (b)

C[C@H](CC[C@@H](O[C@@H]1O[C@H](CO[C@H]2O[C@H](CO)[C@@H](O)[C@H](O)[C@H]2O)[C@@H](O)[C@H](O)[C@H]1O[C@@H]1O[C@H](CO)[C@@H](O)[C@H](O)[C@H]1O)C(C)(C)O)[C@H]1CC[C@@]2(C)[C@]3(C)CC=C4[C@@H](CC[C@H](O[C@@H]5O[C@H](CO)[C@@H](O)[C@H](O)[C@H]5O)C4(C)C)[C@]3(C)[C@H](O)C[C@]12C [Siratose]
Sweet Linger [5]: 6.375 (a) | Bitterness [5]: 1.750 (a) | Mouthfeel/Thickness [5]: 5.375 (a) | Peak Sweetness [5]: 8.000 (a) | Upfront Sweetness [5]: 6.625 (a) | bitter aftertaste compared with stevia [6]: lower bitter aftertaste | licorice aftertaste compared with stevia [6]: lower licorice aftertaste | mouthfeel compared with stevia [6]: better mouthfeel | Sweet Linger [7]: 6.143 (a) | Bitterness [7]: 1.357 (a) | Mouthfeel/Thickness [7]: 4.143 (a) | Peak Sweetness [7]: 8.429 (a) | Upfront Sweetness [7]: 6.571 (a)

C=C1C[C@@]23CC[C@H]4[C@@](C)(CCC[C@@]4(C)C(=O)O[C@@H]4O[C@H](CO)[C@@H](O)[C@H](O[C@@H]5O[C@H](CO)[C@@H](O)[C@H](O)[C@H]5O)[C@H]4O[C@@H]4O[C@H](CO)[C@@H](O)[C@H](O)[C@H]4O)[C@@H]2CC[C@]1(O[C@@H]1O[C@H](CO)[C@@H](O)[C@H](O[C@@H]2O[C@H](CO)[C@@H](O)[C@H](O)[C@H]2O)[C@H]1O[C@@H]1O[C@H](CO)[C@@H](O)[C@H](O)[C@H]1O)C3 [Reb M, Rebaudioside M]
Licorice Aftertaste [1]: 2.2 | Lingering Sweetness [1]: 3.9 | Mouth Coating [1]: 2.5 | Overall Off-Taste [1]: 3.3 | Delayed Sweetness [1]: 3.3 | Sweetness [1]: 5.8 | Bitterness Aftertaste [2]: 1.4 | Licorice Aftertaste [2]: 2.5 | Lingering Sweetness [2]: 4.3 | Overall Off-Taste [2]: 3.6 | Bitterness [2]: 1.9 | Delayed Sweetness [2]: 3.3 | Global Flavor Intensity [2]: 4.8 | Sweetness [2]: 6.0 | Bitterness Aftertaste [3, 8]: 1.1 | Licorice Aftertaste [3, 8]: 2.0 | Lingering Sweetness [3, 8]: 3.7 | Overall Off-Taste [3, 8]: 2.9 | Bitterness [3, 8]: 1.4 | Delayed Sweetness [3, 8]: 2.5 | Global Flavor Intensity [3, 8]: 4.0 | Sweetness [3, 8]: 4.9 | Thickness/Body [3, 8]: 1.5 | Licorice Aftertaste [3, 9]: 2.2 | Lingering Sweetness [3, 9]: 4.4 | Mouth Coating [3, 9]: 2.2 | Overall Off-Taste [3, 9]: 3.1 | Bitterness [3, 9]: 1.3 | Delayed Sweetness [3, 9]: 3.0 | Global Flavor Intensity [3, 9]: 4.7 | Sweetness [3, 9]: 6.1 | Thickness/Body [3, 9]: 1.9 | Licorice Aftertaste [4, 10]: 0.8 | Lingering Sweetness [4, 10]: 2.6 | Mouth Coating [4, 10]: 3.1 | Overall Off-Taste [4, 10]: 1.8 | Astringence [4, 10]: 0.6 | Delayed Sweetness [4, 10]: 1.7 | Fattiness [4, 10]: 3.3 | Sourness [4, 10]: 0.7 | Sweetness [4, 10]: 4.9 | Licorice Aftertaste [4, 11]: 1.3 | Lingering Sweetness [4, 11]: 3.8 | Mouth Coating [4, 11]: 0.7 | Overall Off-Taste [4, 11]: 2.1 | Astringence [4, 11]: 0.6 | Bitterness [4, 11]: 0.8 | Delayed Sweetness [4, 11]: 2.2 | Fattiness [4, 11]: 3.8 | Global Flavor Intensity [4, 11]: 4.6 | Sourness [4, 11]: 0.7 | Sweetness [4, 11]: 6.6
